Converted amounts (≈) assume the structure as drawn. Where two headings read alike, the source gives them in different places. Where a SMILES comes first, the peptide text is derived from it.
Tests used:
P. aeruginosa ATCC27853 = format: cell-based, Pseudomonas aeruginosa
Excerpt: Biofilms may form on a wide variety of surfaces, including living or dead surfaces, and biofilm-associated bacteria are more tolerant to antibiotics than planktonic bacterial cells, making them antibiotic-resistant. To assess the efficacy of PEP27-2 against biofilms, we observed the anti-biofilm activity of PEP27-2 in S. aureus (ATCC 25923 and CCARM 3090), E. coli (ATCC 25922 and CCARM 1238), and P. aeruginosa (ATCC 27853 and 4891).
Specifically, among the strains listed in Table 3 above, Staphylococcus aureus, E. coli and Pseudomonas erujinosa, respectively, were cultured in each medium to a mid-log phase, diluted to a cell concentration of 5×10^4 cells/100 μl, and then, inoculated into a micro-plate (SPL). Then, PEP27-2 peptide was diluted 1/10 times with 10 mM PBS solution (pH 7.2) and 10 μl of the solution was added to each well, followed by incubation at 37° C. for 24 hours. After completely removing the supernatant, the solution was fixed with 100% methanol for 15 minutes, stained with a crystal violet dye solution for 1 hour, washed 3 times, and then dissolved in 95% ethanol, followed by measuring the absorbance at a wavelength of 595 nm using a micro titration plate reader, thereby determining a biofilm minimal inhibitory concentration value for each strain.

P. aeruginosa ATCC15692 [1] = format: cell-based, Pseudomonas aeruginosa
P. aeruginosa 4007 [2] = format: cell-based, Pseudomonas aeruginosa
HaCaT and MCF-7 cells = test: MTT cytotoxicity; format: cell-based, human; settings: for toxicity relative to the antimicrobial concentration range: mouse erythrocytes and human cells
Description: Specifically, Thiazolyl blue tetrazolium bromide (MTT, Merck KGaA) was used to determine the cytotoxicity of PEP27 and its analogs against HaCaT (human keratinocyte […], n=4 per condition) and MCF-7 (human breast adenocarcinoma, n=3 per condition) cells. The cells were cultured in Dulbecco's modified Eagle's medium (DMEM) supplemented with 10 heat-inactivated fetal bovine serum (FBS, Gibco, Grand Island, NY, USA) and 1% penicillin-streptomycin (Gibco) at a density of 2×10^4 cells/well (96-well plate). Peptides were then added at various concentrations and incubated for 24 h at 37° C., after which MTT (final concentration, 0.5 mg/mL) was added to each well and incubated for 4 h. The formazan product was solubilized in DMSO, and the absorbance at 570 nm was measured to […] cytotoxicity. Cells treated with 0.1% Triton X-100 were used as the 100% cytotoxic control sample.

E. coli ATCC 25922 = test: Cytoplasmic membrane depolarization (DiSC3-5); format: cell-based, Escherichia coli; settings: 4×MIC
Description: We also used E. coli cells and the membrane potential-sensitive cyanine dye 3,3′-dipropylthiadicarbocyanine iodide (DiSC3-5) to test the ability of PEP27 and PEP27-2 to depolarize Gram-negative bacterial membranes (FIG. 15B to FIG. 15E).
Depolarization of the cytoplasmic membrane by the peptides was measured using the membrane potential-sensitive dye DiSC3-5 (Merck KGaA, n=4 per condition) with intact E. coli cells as previously described. 66 Mid-log-phase E. coli ATCC 25922 cells were washed with 5 mM HEPES buffer containing 20 mM glucose and resuspended to an OD600 of 0.05 in 5 mM HEPES buffer containing 20 mM glucose and 0.1 M KCl. The cell suspension was incubated with 1 μM DiSC3-5 for 1 h. […] Fluorescence was measured at excitation and emission wavelengths of 622 and 670 nm, respectively.
When the bacterial cytoplasmic membrane is disrupted, the membrane potential dissipates E. coli, and DiSC3-5 is released into the culture medium, resulting in a fluorescence increase. After stabilization for 10 min by treatment with DiSC3-5, AMPs were added, and the plasma membrane potential of E. coli was confirmed by monitoring the change in fluorescence intensity for another 30 min.

S. aureus CCARM3089 = test: microbe, parasite or virus in culture; settings: S. aureus CCARM3089, antibiotics-tolerant; 37° C., 18 hours
Summary of the method: (§1)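 Peptide growth inhibition measured by twofold dilution against mid-log bacteria (2×10^4 cells/100 μl), 37° C, 18 hours; endpoint was absence of cell division. Meropenem, ceftazidime, ceftriaxone and vancomycin were run in parallel.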

S. aureus CCARM3090 = test: microbe, parasite or virus in culture; settings: S. aureus CCARM3090, antibiotics-tolerant; 37° C., 18 hours
Summary of the method: as §1

P. aeruginosa ATCC15692 [3] = test: microbe, parasite or virus in culture
Summary of the method: as §1

P. aeruginosa 4007 [4] = test: microbe, parasite or virus in culture
Summary of the method: as §1

P. aeruginosa 4891 = test: microbe, parasite or virus in culture
Summary of the method: as §1

S. aureus CCARM3518 = test: microbe, parasite or virus in culture; settings: S. aureus CCARM3518, antibiotics-tolerant; 37° C., 18 hours
Summary of the method: as §1

[5] = tested on: 11 types of strains (Staphylococcus aureus, Pseudomonas erujinosa); test: MIC, summary over the strains of Table 7; format: cell-based
Description: In order to compare the antimicrobial activity of PEP27-2, which is the peptide having the most excellent antimicrobial activity among the peptides prepared by the method of above 1, with existing antibiotics, MIC concentrations of specific antibiotics were investigated with regard to the same gram-positive bacteria (Staphylococcus aureus) and the same gram-negative bacteria (Pseudomonas erujinosa) stains. Specifically, subject strains were prepared by the method of above 2, and were treated with the antibiotics, that is, meropenem, ceftazidime, ceftriaxone or vancomycin, respectively, followed by determining MICs of the antibiotics.

SMILES | Biofilm minimal inhibitory concentration (P. aeruginosa ATCC27853; P. aeruginosa ATCC27853, 37° C., 24 hours) [µM] | Biofilm minimal inhibitory concentration (P. aeruginosa ATCC15692 [1]; P. aeruginosa ATCC15692, 37° C., 24 hours) [µM] | Biofilm minimal inhibitory concentration (P. aeruginosa 4007 [2]; P. aeruginosa 4007, 37° C., 24 hours) [µM] | toxicity relative to the antimicrobial concentration range (HaCaT and MCF-7 cells) | DiSC3-5 fluorescence intensity (membrane depolarization) (E. coli ATCC 25922) | Minimal inhibitory concentration (S. aureus CCARM3089) [µM] | Minimal inhibitory concentration (S. aureus CCARM3090) [µM] | Minimal inhibitory concentration (P. aeruginosa ATCC15692 [3]; P. aeruginosa ATCC15692, Gram-negative, 37° C., 18 hours) [µM] | Minimal inhibitory concentration (P. aeruginosa 4007 [4]; P. aeruginosa 4007, antibiotics-tolerant, 37° C., 18 hours) [µM] | Minimal inhibitory concentration (P. aeruginosa 4891; P. aeruginosa 4891, antibiotics-tolerant, 37° C., 18 hours) [µM] | Minimal inhibitory concentration (S. aureus CCARM3518) [µM] | MIC range over the strains of Table 7 [5] [µM] | maximum percent biofilm inhibition (P. aeruginosa ATCC27853; ATCC27853) [%] | Biofilm minimal inhibitory concentration (P. aeruginosa ATCC27853; ATCC27853, 24 h) [µM] | Biofilm minimal inhibitory concentration (P. aeruginosa ATCC15692 [1]; ATCC15692, 24 h) [µM] | Biofilm minimal inhibitory concentration (P. aeruginosa 4007 [2]; 4007, 24 h) [µM] | cell viability (HaCaT and MCF-7 cells; 100 μM, 24 h, MTT, HaCaT and MCF-7 cells) | Minimal inhibitory concentration (P. aeruginosa ATCC15692 [3]; ATCC15692, 18 h) [µM] | Minimal inhibitory concentration (P. aeruginosa 4007 [4]; 4007, 18 h) [µM] | Minimal inhibitory concentration (P. aeruginosa 4891; 4891, 18 h) [µM]
CC[C@H](C)[C@H](NC(=O)CN)C(=O)NCC(=O)N[C@@H](C)C(=O)N[C@H](C(=O)N[C@@H](CC(C)C)C(=O)N[C@@H](CCCCN)C(=O)N[C@H](C(=O)N[C@@H](CC(C)C)C(=O)N[C@H](C(=O)N[C@H](C(=O)NCC(=O)N[C@@H](CC(C)C)C(=O)N1CCC[C@H]1C(=O)N[C@@H](C)C(=O)N[C@@H](CC(C)C)C(=O)N[C@H](C(=O)N[C@@H](CO)C(=O)N[C@@H](Cc1c[nH]c2ccccc12)C(=O)N[C@H](C(=O)N[C@@H](CCCCN)C(=O)N[C@@H](CCCNC(=N)N)C(=O)N[C@@H](CCCCN)C(=O)N[C@@H](CCCNC(=N)N)C(=O)N[C@@H](CCC(N)=O)C(=O)N[C@@H](CCC(N)=O)C(N)=O)[C@@H](C)CC)[C@@H](C)CC)[C@@H](C)O)[C@@H](C)O)C(C)C)C(C)C [Melittin, reference compound] | 4 | 4 | 4 | begins to show toxicity within the range of antibacterial activity | ~140 | 2 (≈ 5.69 µg/mL) | 4 (≈ 11.4 µg/mL) | 2 (≈ 5.69 µg/mL) | 2 (≈ 5.69 µg/mL) | 2 (≈ 5.69 µg/mL) | 2 (≈ 5.69 µg/mL) | – | – | – | – | – | – | – | – | –
CSCC[C@H](N)C(=O)N[C@@H](Cc1c[nH]c2ccccc12)C(=O)N[C@@H](CCCCN)C(=O)N[C@@H](Cc1c[nH]c2ccccc12)C(=O)N[C@@H](Cc1ccccc1)C(=O)N[C@@H](Cc1c[nH]cn1)C(=O)N[C@@H](CC(N)=O)C(=O)N[C@H](C(=O)N[C@@H](CC(C)C)C(=O)N[C@@H](CO)C(=O)N[C@@H](Cc1c[nH]c2ccccc12)C(=O)NCC(=O)N[C@@H](Cc1c[nH]c2ccccc12)C(=O)N[C@@H](CC(C)C)C(=O)N[C@@H](CC(C)C)C(=O)N[C@@H](C)C(=O)N[C@@H](CC(=O)O)C(=O)N[C@@H](CCCCN)C(=O)N[C@@H](CCCNC(=N)N)C(=O)N1CCC[C@H]1C(=O)N[C@@H](C)C(=O)N[C@@H](CCCNC(=N)N)C(=O)N[C@@H](CC(=O)O)C(=O)N[C@@H](Cc1ccc(O)cc1)C(=O)N[C@@H](CC(N)=O)C(=O)N[C@@H](CCCNC(=N)N)C(=O)N[C@@H](CCCCN)C(N)=O)C(C)C [PEP27-2] (H-MWKWFHNVLSWGWLLADKRPARDYNRK-NH2) | – | – | – | not toxic within the range of antimicrobial activity or 4×MIC concentration | – | 4 (≈ 13.9 µg/mL) | 4 (≈ 13.9 µg/mL) | – | – | – | 4 (≈ 13.9 µg/mL) | 2 to 4 | 81.2 | 8 | 8 | 8 | 19%-23% | 4 (≈ 13.9 µg/mL) | 4 (≈ 13.9 µg/mL) | 4 (≈ 13.9 µg/mL)

— patent US12180252B2, “Peptide derived from PEP27 peptide and uses thereof” (priority 2021, dated 2024)
